Laboratory results from patent US20210330686A1, “COMPOSITION CONTAINING 2'-FUCOSYLLACTOSE FOR PREVENTING STROKE” (Advanced Protein Technologies Corp., priority 2018, published 2021).

Tests used:
[1] = tested on: brain injury induced by middle cerebral artery occlusion (MCAO); assay: Behavioral test: spontaneous exercise of stroke-induced animals (MCAO model); type: in vivo, Sprague-Dawley rats
[2] = tested on: brain injury induced by middle cerebral artery occlusion (MCAO); assay: TTC staining of stroke-induced brain (MCAO model) after oral pre-administration; type: in vivo, Sprague-Dawley rats

Substance: 2′-fucosyllactose [2′-FL]
- exercise amount 2 days after stroke induction (D2) ([1]; oral 300 mg/kg for 3 days before MCAO): significantly increase
- exercise amount 2 days after stroke induction (D2) ([1]; oral 400 mg/kg for 3 days before MCAO): no statistically significant increase in exercise
- total exercise amount 2 days after stroke induction (D2) ([1]; oral pre-administration for 3 days, all doses): found to increase the total exercise amount
- brain damage compared to the control group not administered ([2]; experimental group administered with 2'-fucosyllactose): significantly suppressed
- brain damage suppression (TTC staining) ([2]; oral pre-administration 0-7 weeks, 200, 300, 400 mg/kg, before MCAO): the longer the 2′-FL pre-administration period and the higher the dose, the better the effect on brain damage suppression
